The source made the active and inactive calls. The rule behind the calls is not given here.
Experiments:
RAW264.7 [1] = test: Antiinflammatory activity in mouse RAW264.7 cells assessed as inhibition of LPS-induced PGE2 production pretreated for 1 hr followed by LPS addition measured after 24 hrs; format: functional, cell-based
RAW264.7 [2] = test: Antiinflammatory activity in mouse RAW264.7 cells assessed as inhibition of LPS-induced nitric oxide production measured after 24 hrs by Griess assay; format: functional, cell-based; conditions: RAW264.7, 24 h
RAW264.7 [3] = test: Cytotoxicity against mouse RAW264.7 cells assessed as reduction in cell viability up to 200 uM measured after 24 hrs in presence of LPS by MTT assay; format: cell-based; conditions: raw264.7, 24 h
RAW264.7 [4] = test: Cytotoxicity against mouse RAW264.7 cells assessed as reduction in cell viability up to 200 uM measured after 24 hrs in absence of LPS by MTT assay; format: cell-based; conditions: raw264.7, 24 h
[5] = target: Tyrosine-protein kinase JAK1 (Mus musculus) (UniProt P52332); test: Inhibition of JAK1 in LPS-stimulated mouse RAW264.7 cells assessed as reduction in STAT3 phosphorylation at […] residue pretreated for 1 hr followed by LPS-stimulation by Western blot analysis; format: cell-based
Tyrosine-protein kinase JAK1 (Mus musculus), sequence (P52332 whole entry): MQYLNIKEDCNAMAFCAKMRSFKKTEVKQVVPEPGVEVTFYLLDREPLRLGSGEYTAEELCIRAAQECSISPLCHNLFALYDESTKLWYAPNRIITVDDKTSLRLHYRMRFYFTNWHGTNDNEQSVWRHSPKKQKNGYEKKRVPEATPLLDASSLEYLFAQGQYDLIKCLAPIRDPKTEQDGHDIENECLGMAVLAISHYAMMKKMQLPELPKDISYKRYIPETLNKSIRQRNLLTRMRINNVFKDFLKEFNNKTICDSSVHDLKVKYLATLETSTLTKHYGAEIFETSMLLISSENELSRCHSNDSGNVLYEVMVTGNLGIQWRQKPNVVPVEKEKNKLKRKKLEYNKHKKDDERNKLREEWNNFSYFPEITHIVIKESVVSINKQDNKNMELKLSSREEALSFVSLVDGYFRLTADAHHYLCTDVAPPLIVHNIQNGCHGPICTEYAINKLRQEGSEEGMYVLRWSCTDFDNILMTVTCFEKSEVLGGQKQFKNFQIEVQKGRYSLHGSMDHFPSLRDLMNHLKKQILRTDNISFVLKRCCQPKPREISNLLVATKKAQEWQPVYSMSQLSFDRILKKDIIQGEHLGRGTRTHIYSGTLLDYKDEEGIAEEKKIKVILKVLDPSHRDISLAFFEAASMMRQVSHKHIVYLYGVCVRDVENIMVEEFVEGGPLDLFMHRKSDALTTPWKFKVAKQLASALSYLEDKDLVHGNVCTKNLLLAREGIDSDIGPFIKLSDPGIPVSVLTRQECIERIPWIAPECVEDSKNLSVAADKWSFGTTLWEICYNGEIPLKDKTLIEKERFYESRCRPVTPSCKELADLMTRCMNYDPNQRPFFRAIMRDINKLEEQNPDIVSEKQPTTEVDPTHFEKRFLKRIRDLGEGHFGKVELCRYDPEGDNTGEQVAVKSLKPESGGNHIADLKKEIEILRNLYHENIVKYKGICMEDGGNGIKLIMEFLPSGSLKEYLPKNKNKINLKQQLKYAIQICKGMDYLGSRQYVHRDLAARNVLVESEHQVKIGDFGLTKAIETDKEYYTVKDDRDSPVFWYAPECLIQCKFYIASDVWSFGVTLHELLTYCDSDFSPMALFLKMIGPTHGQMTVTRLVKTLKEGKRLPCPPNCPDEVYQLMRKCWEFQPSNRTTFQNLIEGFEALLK

RAW264.7 [6] = test: Antiinflammatory activity in mouse RAW264.7 cells assessed as inhibition of LPS-stimulated iNOS mRNA expression at 50 uM measured up to 12 hrs by SYBR green dye based RT-PCR analysis; format: functional, cell-based
RAW264.7 [7] = test: Antiinflammatory activity in mouse RAW264.7 cells assessed as inhibition of LPS-stimulated iNOS expression at 12.5 to 50 uM pretreated for 1 hr followed by LPS-stimulation measured after 12 hrs by Western blot analysis; format: functional, cell-based
RAW264.7 [8] = test: Antiinflammatory activity in mouse RAW264.7 cells assessed as inhibition of LPS-stimulated COX2 mRNA expression at 50 uM measured up to 12 hrs by SYBR green dye based RT-PCR analysis; format: functional, cell-based
RAW264.7 [9] = test: Antiinflammatory activity in mouse RAW264.7 cells assessed as inhibition of LPS-induced nitric oxide production pretreated for 1 hr followed by LPS stimulation measured after 24 hrs by Griess assay; format: functional, cell-based
RAW264.7 [10] = test: Antiinflammatory activity in mouse RAW264.7 cells assessed as inhibition of LPS-stimulated COX2 expression at 12.5 to 50 uM pretreated for 1 hr followed by LPS-stimulation measured after 12 hrs by Western blot analysis; format: functional, cell-based
RAW264.7 [11] = test: Antiinflammatory activity in mouse RAW264.7 cells assessed as inhibition of LPS-stimulated mPGES1 expression at 12.5 to 50 uM pretreated for 1 hr followed by LPS-stimulation measured after 12 hrs by Western blot analysis; format: functional, cell-based
RAW264.7 [12] = test: Antiinflammatory activity in mouse RAW264.7 cells assessed as inhibition of LPS-stimulated mPGES1 mRNA expression at 50 uM measured up to 12 hrs by SYBR green dye based RT-PCR analysis; format: functional, cell-based
RAW264.7 [13] = test: Antiinflammatory activity in mouse RAW264.7 cells assessed as inhibition of LPS-stimulated IL-6 production pretreated for 1 hr followed by LPS addition measured after 24 hrs by enzyme immunoassay; format: functional, cell-based
RAW264.7 [14] = test: Antiinflammatory activity in mouse RAW264.7 cells assessed as inhibition of LPS-stimulated IL1beta production in mouse RAW264.7 cells pretreated for 1 hr followed by LPS addition measured after 24 hrs by enzyme immunoassay; format: functional, cell-based
RAW264.7 [15] = test: Antiinflammatory activity in mouse RAW264.7 cells assessed as inhibition of LPS-stimulated IL-6 production in mouse RAW264.7 cells at 50 uM pretreated for 1 hr followed by LPS addition measured after 24 hrs by enzyme immunoassay relative to control; format: functional
RAW264.7 [16] = test: Antiinflammatory activity in mouse RAW264.7 cells assessed as inhibition of LPS-stimulated IL1beta production in mouse RAW264.7 cells at 50 uM pretreated for 1 hr followed by LPS addition measured after 24 hrs by enzyme immunoassay relative to control; format: functional
RAW264.7 [17] = test: Antiinflammatory activity in mouse RAW264.7 cells assessed as inhibition of LPS-stimulated IL-6 mRNA expression at 50 uM measured up to 6 hrs by SYBR green dye based RT-PCR analysis; format: functional, cell-based
RAW264.7 [18] = test: Antiinflammatory activity in mouse RAW264.7 cells assessed as inhibition of LPS-stimulated IL1beta mRNA expression at 50 uM measured up to 6 hrs by SYBR green dye based RT-PCR analysis; format: functional, cell-based
[19] = target: Transcription factor Jun (Homo sapiens) (UniProt P05412); test: Inhibition of AP1 (unknown origin) expressed in LPS-stimulated mouse RAW264.7 cells at 12.5 to 50 uM pretreated for 1 hr followed by LPS-stimulation measured after 18 hrs by luciferase reporter gene assay; format: cell-based
Transcription factor Jun (Homo sapiens), sequence (P05412 whole entry): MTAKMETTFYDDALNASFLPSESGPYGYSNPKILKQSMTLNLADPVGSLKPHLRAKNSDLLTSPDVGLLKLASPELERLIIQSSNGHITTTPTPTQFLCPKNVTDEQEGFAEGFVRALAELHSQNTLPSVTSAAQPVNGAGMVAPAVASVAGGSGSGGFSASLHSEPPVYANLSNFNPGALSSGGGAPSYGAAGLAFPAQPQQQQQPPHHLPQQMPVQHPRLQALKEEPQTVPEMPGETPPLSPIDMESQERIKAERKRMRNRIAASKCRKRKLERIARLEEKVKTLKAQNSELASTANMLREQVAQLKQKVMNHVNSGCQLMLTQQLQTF

RAW264.7 [20] = test: Inhibition of NFKappaB (unknown origin) expressed in LPS-stimulated mouse RAW264.7 cells by luciferase reporter gene assay; format: cell-based; conditions: Homo sapiens
[21] = target: Protein c-Fos (Mus musculus) (UniProt P01101); test: Inhibition of LPS-induced c-FOS phosphorylation in mouse RAW264.7 cells at 50 uM pretreated for 1 hr followed by LPS-stimulation measured after 15 mins by Western blot analysis; format: cell-based
Protein c-Fos (Mus musculus), sequence (P01101 whole entry): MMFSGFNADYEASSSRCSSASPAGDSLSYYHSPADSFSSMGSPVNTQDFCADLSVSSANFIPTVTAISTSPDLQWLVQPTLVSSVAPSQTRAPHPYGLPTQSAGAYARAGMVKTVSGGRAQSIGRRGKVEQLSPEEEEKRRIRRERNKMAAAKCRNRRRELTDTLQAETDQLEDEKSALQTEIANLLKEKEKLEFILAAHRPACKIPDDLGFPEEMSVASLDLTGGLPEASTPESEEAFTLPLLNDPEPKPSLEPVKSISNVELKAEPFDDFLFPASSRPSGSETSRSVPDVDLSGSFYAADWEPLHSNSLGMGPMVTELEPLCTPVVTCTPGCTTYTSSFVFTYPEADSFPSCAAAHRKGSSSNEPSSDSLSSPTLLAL

RAW264.7 [22] = test: Inhibition of LPS-induced c-FOS expression in mouse RAW264.7 cells at 50 uM pretreated for 1 hr followed by LPS-stimulation measured after 15 mins by Western blot analysis; format: functional, cell-based
[23] = target: Transcription factor Jun (Mus musculus) (UniProt P05627); test: Inhibition of LPS-induced c-JUN phosphorylation in mouse RAW264.7 cells at 50 uM pretreated for 1 hr followed by LPS-stimulation measured up to 30 mins by Western blot analysis; format: cell-based
Transcription factor Jun (Mus musculus), sequence (P05627 whole entry): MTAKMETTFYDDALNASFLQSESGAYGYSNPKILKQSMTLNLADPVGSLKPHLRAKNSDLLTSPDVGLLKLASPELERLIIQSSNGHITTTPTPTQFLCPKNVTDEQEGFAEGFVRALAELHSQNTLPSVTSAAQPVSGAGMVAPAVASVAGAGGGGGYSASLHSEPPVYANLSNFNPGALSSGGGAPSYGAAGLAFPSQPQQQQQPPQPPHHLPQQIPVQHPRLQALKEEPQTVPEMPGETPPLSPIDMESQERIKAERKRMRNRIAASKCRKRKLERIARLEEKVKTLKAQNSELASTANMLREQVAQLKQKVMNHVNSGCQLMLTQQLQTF

RAW264.7 [24] = test: Inhibition of LPS-induced c-JUN expression in mouse RAW264.7 cells at 50 uM pretreated for 1 hr followed by LPS-stimulation measured up to 30 mins by Western blot analysis; format: functional, cell-based
[25] = target: Tyrosine-protein kinase JAK1 (Mus musculus) (UniProt P52332); test: Inhibition of JAK1 in LPS-stimulated mouse RAW264.7 cells assessed as reduction in STAT1 phosphorylation at S727 residue pretreated for 1 hr followed by LPS-stimulation by Western blot analysis; format: cell-based
[26] = target: Tyrosine-protein kinase JAK1 (Mus musculus) (UniProt P52332); test: Inhibition of JAK1 in LPS-stimulated mouse RAW264.7 cells assessed as reduction in STAT1 phosphorylation at Y701 residue pretreated for 1 hr followed by LPS-stimulation by Western blot analysis; format: cell-based
[27] = target: MAP kinase p38 (Mus musculus) (UniProt P47811+O08911+Q9WUI1+Q9Z1B7); test: Inhibition of LPS-induced p38 phosphorylation in mouse RAW264.7 cells at 50 uM pretreated for 1 hr followed by LPS-stimulation measured up to 30 mins by Western blot analysis; format: cell-based
RAW264.7 [28] = test: Inhibition of LPS-induced ERK phosphorylation in mouse RAW264.7 cells at 50 uM pretreated for 1 hr followed by LPS-stimulation measured up to 30 mins by Western blot analysis; format: cell-based
RAW264.7 [29] = test: Inhibition of LPS-induced JNK phosphorylation in mouse RAW264.7 cells at 50 uM pretreated for 1 hr followed by LPS-stimulation measured up to 30 mins by Western blot analysis; format: cell-based

## COc1cc(/C=C/C(=O)NCCc2c[nH]c3ccc(O)c(-c4c(O)ccc5[nH]cc(CCNC(=O)/C=C/c6ccc(O)cc6)c45)c23)ccc1O
RAW264.7 [1]
  IC50: > 100 µM
RAW264.7 [2]
  IC50: > 200 µM
RAW264.7 [3]
  Activity: Non-Toxic
RAW264.7 [4]
  Activity: Non-Toxic

## CC(=O)OC[C@H]1O[C@@H](O[C@H](C)[C@H]2C[C@H](O)[C@H]3[C@@H]4CCC5=CC(=O)CC[C@]5(C)[C@H]4CC[C@@]32C)[C@H](O)[C@@H](O)[C@@H]1O[C@@H]1O[C@H](CO)[C@@H](O)[C@H](O)[C@H]1O
RAW264.7 [1]
  IC50: > 100 µM
RAW264.7 [2]
  IC50: > 200 µM
RAW264.7 [3]
  Activity: Non-Toxic
RAW264.7 [4]
  Activity: Non-Toxic

## COc1cc(/C=C/C(=O)NCCc2c[nH]c3ccc(O)c(-c4c(O)ccc5[nH]cc(CCNC(=O)/C=C/c6ccc(O)c(OC)c6)c45)c23)ccc1O
RAW264.7 [1]
  IC50: > 100 µM
RAW264.7 [2]
  IC50: > 200 µM
RAW264.7 [3]
  Activity: Non-Toxic
RAW264.7 [4]
  Activity: Non-Toxic

## O=C(/C=C/c1ccc(O)cc1)NCCc1c[nH]c2ccc(O[C@@H]3O[C@H](CO)[C@@H](O)[C@H](O)[C@H]3O)cc12
RAW264.7 [1]
  IC50: 89.8 µM
RAW264.7 [2]
  IC50: 135 µM
RAW264.7 [3]
  Activity: Non-Toxic
RAW264.7 [4]
  Activity: Non-Toxic

## COc1ccc(C[C@H]2COC(=O)[C@]2(O)Cc2ccc(O[C@@H]3O[C@H](CO)[C@@H](O)[C@H](O)[C@H]3O)c(OC)c2)cc1OC
RAW264.7 [1]
  IC50: > 100 µM
RAW264.7 [2]
  IC50: > 200 µM
RAW264.7 [3]
  Activity: Non-Toxic
RAW264.7 [4]
  Activity: Non-Toxic

## O=C(/C=C/c1ccc(O)cc1)NCCc1c[nH]c2ccc(O)c(-c3c(O)ccc4[nH]cc(CCNC(=O)/C=C/c5ccc(O)cc5)c34)c12
RAW264.7 [1]
  IC50: > 100 µM
RAW264.7 [2]
  IC50: > 200 µM
RAW264.7 [3]
  Activity: Non-Toxic
RAW264.7 [4]
  Activity: Non-Toxic

## COc1cc(C[C@@H](CO)[C@H](CO)Cc2ccc(O)c(OC)c2)ccc1O [(+)-SECOISOLARICIRESINOL]
RAW264.7 [1]
  IC50: > 100 µM
RAW264.7 [2]
  IC50: > 200 µM
RAW264.7 [3]
  Activity: Non-Toxic
RAW264.7 [4]
  Activity: Non-Toxic

## CC(=N)NCCCC[C@H](N)C(=O)O [L-NIL]
RAW264.7 [2]
  IC50: 28.3 µM

## COc1cc(/C=C/C(=O)NCCc2c[nH]c3ccc(O)cc23)ccc1O [N-FERULOYL SEROTONIN]
[5]
  inhibition: Dose-dependent effect
RAW264.7 [6]
  inhibition: Active
RAW264.7 [7]
  inhibition: Active
RAW264.7 [8]
  inhibition: Active
RAW264.7 [1]
  IC50: 14.7 µM
  inhibition: Dose-dependent effect
RAW264.7 [2]
  IC50: 123 µM
RAW264.7 [3]
  Activity: Non-Toxic
RAW264.7 [9]
  inhibition: Dose-dependent effect
RAW264.7 [10]
  inhibition: Active
RAW264.7 [11]
  inhibition: Active
RAW264.7 [12]
  inhibition: Active
RAW264.7 [13]
  inhibition: Dose-dependent effect
RAW264.7 [14]
  inhibition: Dose-dependent effect
RAW264.7 [15]
  inhibition at 50 µM: 25.1%
RAW264.7 [16]
  inhibition at 50 µM: 52.2%
RAW264.7 [17]
  inhibition: Active
RAW264.7 [18]
  inhibition: Active
[19]
  inhibition: Active
RAW264.7 [20]
  inhibition: inactive
[21]
  inhibition: Active
RAW264.7 [22]
  inhibition: Active
[23]
  inhibition: inactive
RAW264.7 [24]
  inhibition: inactive
[25]
  inhibition: Dose-dependent effect
[26]
  inhibition: Dose-dependent effect
[27]
  inhibition: Active
RAW264.7 [28]
  inhibition: Active
RAW264.7 [29]
  inhibition: inactive
RAW264.7 [4]
  Activity: Non-Toxic

## O=C(/C=C/c1ccc(O)cc1)NCCc1c[nH]c2ccc(O)cc12 [N-P-COUMAROYL SEROTONIN]
RAW264.7 [1]
  IC50: 43.2 µM
RAW264.7 [2]
  IC50: 164 µM
RAW264.7 [3]
  Activity: Non-Toxic
RAW264.7 [4]
  Activity: Non-Toxic
